Test results from ChEMBL document CHEMBL1148013, “Synthesis, biological evaluation and molecular modeling studies of arylidene-thiazolidinediones with potential hypoglycemic and hypolipidemic activities” (2007).

Tests used:
Type in all cases: functional
Set-up in all cases: scale not given: the % may be the effect or the level left
Mus musculus [1] = experiment: Reduction in plasma triglyceride level in alloxan-induced diabetic mouse at 30 mg/kg/day, po after 15 days relative to control
Mus musculus [2] = experiment: Reduction in plasma glucose level in alloxan-induced diabetic mouse at 30 mg/kg/day, po after 15 days relative to control
Mus musculus [3] = experiment: Reduction in plasma glucose level in alloxan-induced diabetic mouse at 40 mg/kg/day, po after 15 days relative to control
Mus musculus [4] = experiment: Reduction in plasma glucose level in alloxan-induced diabetic mouse at 10 mg/kg/day, po after 15 days relative to control
Mus musculus [5] = experiment: Reduction in plasma triglyceride level in alloxan-induced diabetic mouse at 10 mg/kg/day, po after 15 days relative to control
Mus musculus [6] = experiment: Reduction in plasma triglyceride level in alloxan-induced diabetic mouse at 40 mg/kg/day, po after 15 days relative to control
Mus musculus [7] = experiment: Reduction in plasma glucose level in alloxan-induced diabetic mouse at 5 mg/kg/day, po after 15 days relative to control
Mus musculus [8] = experiment: Reduction in plasma triglyceride level in alloxan-induced diabetic mouse at 5 mg/kg/day, po after 15 days relative to control
Mus musculus [9] = experiment: Reduction in plasma glucose level in alloxan-induced diabetic mouse at 20 mg/kg/day, po after 15 days relative to control
Mus musculus [10] = experiment: Reduction in plasma triglyceride level in alloxan-induced diabetic mouse at 20 mg/kg/day, po after 15 days relative to control

Q: Which Activity (Mus musculus [1]) does the source give for `Cc1ccc(CN2C(=O)S/C(=C\c3ccc([N+](=O)[O-])cc3)C2=O)cc1` here?
A: 7.1%

Q: What about the Activity (Mus musculus [2]) of the same compound?
A: 11.42%

Q: What does the source list for `Cc1ccc(CN2C(=O)S/C(=C\c3ccc(O)cc3)C2=O)cc1`?
A: Activity (Mus musculus [2]): 37.3%; Activity (Mus musculus [3]): 37.2%; Activity (Mus musculus [4]): 19.9%

Q: For `Cc1ccc(/C=C2\SC(=O)N(Cc3ccc(C)cc3)C2=O)cc1`, which Activity (Mus musculus [5]) is on record?
A: 41.7%

Q: What about the Activity (Mus musculus [4]) of the same compound?
A: 16.3%

Q: How did the Activity (Mus musculus [6]) turn out when `Cc1ccc(CN2C(=O)S/C(=C\c3ccc(Cl)cc3)C2=O)cc1` was run?
A: 27.1%

Q: And the Activity (Mus musculus [1])?
A: 48%

Q: And the Activity (Mus musculus [2])?
A: 22.8%

Q: What about the Activity (Mus musculus [3]) of the same compound?
A: 31.5%

Q: What about the Activity (Mus musculus [4]) of the same compound?
A: 18.7%

Q: What does the source list for `CN(CCOc1ccc(CC2SC(=O)NC2=O)cc1)c1ccccn1` (stereo not drawn) [ROSIGLITAZONE]?
A: Activity (Mus musculus [7]): 26.3%; Activity (Mus musculus [1]): 6.4%; Activity (Mus musculus [2]): 11.6%; Activity (Mus musculus [8]): 15.9%; Activity (Mus musculus [5]): 43.3%; Activity (Mus musculus [4]): 36.7%

Q: Which results are given for `Cc1ccc(CN2C(=O)S/C(=C\c3cccc(Br)c3)C2=O)cc1`?
A: Activity (Mus musculus [5]): 17.6%; Activity (Mus musculus [4]): 21.3%

Q: Which results are given for `Cc1ccc(CN2C(=O)S/C(=C\c3ccccc3Cl)C2=O)cc1`?
A: Activity (Mus musculus [1]): 26%; Activity (Mus musculus [2]): 43.3%; Activity (Mus musculus [9]): 47%; Activity (Mus musculus [5]): 14.8%; Activity (Mus musculus [4]): 19.2%; Activity (Mus musculus [10]): 20%

Q: With `Cc1ccc(CN2C(=O)S/C(=C\c3ccc(F)cc3)C2=O)cc1` as the compound, how does the Activity (Mus musculus [2]) read?
A: 13.5%

Q: For `Cc1ccc(CN2C(=O)S/C(=C\c3ccc(N(C)C)cc3)C2=O)cc1`, which Activity (Mus musculus [1]) is on record?
A: 44.1%

Q: And the Activity (Mus musculus [2])?
A: 40.8%

Q: And the Activity (Mus musculus [9])?
A: 35.8%

Q: And the Activity (Mus musculus [4])?
A: 14.9%

Q: And the Activity (Mus musculus [10])?
A: 17.4%

Q: With `COc1ccc(/C=C2\SC(=O)N(Cc3ccc(C)cc3)C2=O)cc1` as the compound, how does the Activity (Mus musculus [7]) read?
A: 27.2%

Q: What about the Activity (Mus musculus [1]) of the same compound?
A: 58.8%

Q: And the Activity (Mus musculus [2])?
A: 50.8%

Q: What about the Activity (Mus musculus [8]) of the same compound?
A: 32.2%

Q: What about the Activity (Mus musculus [5]) of the same compound?
A: 37.6%

Q: What about the Activity (Mus musculus [4]) of the same compound?
A: 20.6%

Q: `COc1ccc(/C=C2\SC(=O)N(Cc3ccc(C)cc3)C2=O)c(OC)c1` was tested. Which Activity (Mus musculus [1]) did it give?
A: 46.5%

Q: What about the Activity (Mus musculus [2]) of the same compound?
A: 34.6%

Q: What about the Activity (Mus musculus [5]) of the same compound?
A: 40%

Q: And the Activity (Mus musculus [3])?
A: 20.1%

Q: What about the Activity (Mus musculus [4]) of the same compound?
A: 21.8%
